{"source": "patent US10364470B2", "about": "“Long non-coding RNA expressed in aggressive cancer” (The Regents of the University of California, priority 2014, dated 2019)", "assay_type_in_all_cases": "cell-based, human", "key": {"BT549 cells": {"test_system": "BT549 cells", "test": "Growth rate of BT549 cells after SAILOR knockdown", "from_the_text": "(§1) The effect of SAILOR on the growth rate of BT549 cells was studied. SAILOR expression was reduced by ˜80% in BT549 cell lines with a short-hairpin RNA (shRNA), 5′-[…]-3′ (SEQ ID NO:14), which targets SAILOR exon 4 at sequence […] (SEQ ID NO:15) (FIG. 5)."}, "SATB1": {"test_system": "SATB1", "test": "SATB1 transcription or protein level after SAILOR knockdown", "conditions": "BT549 cells"}, "SAILOR": {"test_system": "SAILOR", "test": "SAILOR knockdown with shRNA in BT549 cell lines", "from_the_text": "as §1"}}, "data": [{"substance": "5′-GGTGGAAGAGTAAACTGTTCCCGAAGGAACAGTTTACTCTTCCACC-3′ (expressed or natural sequence) [shRNA]", "values": [{"measurement": "growth rate of SAILOR knockdown cells", "setting": "BT549 cells", "value": "slowed growth rate"}, {"measurement": "effect of reduced SAILOR levels on SATB1 transcription or protein level", "setting": "SATB1", "value": "did not affect"}, {"measurement": "SAILOR expression reduced (knock down)", "setting": "SAILOR", "value": "~80", "unit": "%"}]}]}
